“Also recorded” adds a separate entry of the source. Where no end group is shown, it is not given here.
Key:
PDHR 43673 = target: T1, PDHR 43673 (Carcinus maenas, UniProt A0A7G7MT97); assay: heterologous aequorin-based receptor luminescence assay, PDHR 43673; format: cell-based; conditions: Ca2+ luminescence; for activation of PDHR 43673 (in words): CHO-K1-Aeq-Gα16 cells
T1 sequence (A0A7G7MT97 1-455): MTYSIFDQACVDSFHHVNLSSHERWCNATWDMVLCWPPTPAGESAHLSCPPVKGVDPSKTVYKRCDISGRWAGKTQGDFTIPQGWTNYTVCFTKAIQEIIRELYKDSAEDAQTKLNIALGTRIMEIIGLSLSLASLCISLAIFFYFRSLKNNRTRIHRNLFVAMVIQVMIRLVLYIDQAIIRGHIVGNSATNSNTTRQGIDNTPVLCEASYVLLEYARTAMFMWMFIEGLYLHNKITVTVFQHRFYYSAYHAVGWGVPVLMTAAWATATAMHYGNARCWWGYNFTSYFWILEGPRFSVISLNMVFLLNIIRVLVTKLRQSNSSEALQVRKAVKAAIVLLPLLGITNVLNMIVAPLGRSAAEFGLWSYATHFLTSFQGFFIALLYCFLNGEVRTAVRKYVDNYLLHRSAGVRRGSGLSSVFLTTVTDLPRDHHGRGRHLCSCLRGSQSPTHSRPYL
Protocol: (§1) PCR of these transcripts was performed as described previously ([Alexander J. et al., 2018]; [Alexander J. L. et al., 2018]). Primer sequences for directional cloning and expression are shown in Supplementary Table 1. Correctly sized PCR products were directionally cloned into pcDNA 3.1 D/V5-His-TOPO plasmids (Invitrogen) and the recombinant vector transformed into TOP 10 competent cells (Invitrogen). Positive clones were cultured overnight in selective LB medium with 100 μg ml^–1 ampicillin, plasmids extracted (FastPlasmid Mini Kit, 5Prime, Hamburg, Germany), resequenced to confirm insert orientation and verification (MWG Eurofins, Ebersberg, Germany), and analyzed using Geneious V 9.1.8.
(§2) A heterologous cell–based assay using Chinese hamster ovary cells (CHO-K1) expressing apoaequorin (Perkin Elmer, Boston, MA, […]) and either the Gα16 or Gq subunit (control cells) was used to report intracellular Ca^2+ fluxes after exposure to ligand, as previously detailed ([Alexander J. et al., 2018]; [Alexander J. L. et al., 2018]).
(§3) Peptides used in the luminescence assay were synthetic C. maenas PDH-1-3 and e-PDH, DH-31 (Genecust Dudelange, Luxembourg). Peptides were reconstituted in 30% acetonitrile, aliquoted and dried by vacuum centrifugation and subsequently re-dissolved in BSA medium (DMEM/F, 50 mM HEPES, 0.1% BSA) immediately prior to assay, and dispensed into quadruplicate wells of white 96 well plates (OptiPlate, Perkin Elmer). Cell suspensions (5 × 10^6 cells/ml) were stirred gently and 50 μl amounts were injected into each well using a Mithras LB940 microplate reader (Berthold Technologies, Bad-Wildbad, Germany). Ca^2+ evoked luminescence was recorded for 40 s, followed by cell lysis (injection of 0.3% Triton-X 100 in BSA medium), and light emission recorded for a further 10 s. BSA medium was used for blank measurements (6 replicates per plate), and mock transfections with empty vectors for negative controls. Data reduction and analysis was done using MikroWin v5.18 (Mikrotek Laborsysteme, GmBH, Overath, Germany) and SigmaPlot v.13 (Systat Software Inc., San José CA, United States). Receptor responses were normalized against total Ca^2+ luminescence.

PDHR 41189 = target: T2, PDHR 41189 (Carcinus maenas, UniProt A0A7G7MT96); assay: heterologous aequorin-based receptor luminescence assay, PDHR 41189; format: cell-based; conditions: Ca2+ luminescence; for activation of PDHR 41189 (in words): CHO-K1-Aeq-Gα16 cells
T2 sequence (A0A7G7MT96 1-455): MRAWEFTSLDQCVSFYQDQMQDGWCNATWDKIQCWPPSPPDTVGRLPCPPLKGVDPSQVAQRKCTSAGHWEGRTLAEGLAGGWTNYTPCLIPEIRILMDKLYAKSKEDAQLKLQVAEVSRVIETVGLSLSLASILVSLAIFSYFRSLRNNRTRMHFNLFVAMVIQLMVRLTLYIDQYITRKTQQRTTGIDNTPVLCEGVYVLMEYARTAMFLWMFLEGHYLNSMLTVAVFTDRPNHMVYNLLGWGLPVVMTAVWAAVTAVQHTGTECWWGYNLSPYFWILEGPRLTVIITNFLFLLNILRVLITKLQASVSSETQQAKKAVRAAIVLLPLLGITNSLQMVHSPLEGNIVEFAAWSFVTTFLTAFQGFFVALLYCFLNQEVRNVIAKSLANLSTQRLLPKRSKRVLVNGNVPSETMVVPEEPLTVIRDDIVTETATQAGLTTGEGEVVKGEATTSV
Protocol: as §1, §2, §3

[1] = test system: red chromatophores (erythrophores) in the dactyl of the last walking leg; assay: chromatophore dispersion bioassay in vivo, red chromatophores (erythrophores); parameters: species or system Carcinus maenas; conditions: n = 6 crabs; for dose giving significant dispersion of red chromatophores (erythrophores): 40 min after injection, 10 μl, p < 0.05, Hogben-Slome index; for dispersion of red chromatophores (in words): significant responses to doses of around 0.5 pmol per crab 40 min after injection
Protocol: (§4) The pigmentary effector activity of all PDHs was measured in vivo using small (15–20 mm carapace width) C. maenas, which were light adapted against a white background (300 lux for 1 h). Pigment dispersion of the red and black chromatophores in the dactyl of the last walking leg was observed microscopically and indices of dispersion scored ([Hogben and Slome, 1931]). Peptides were reconstituted in physiological saline ([Saver et al., 1999]) immediately prior to assay, to minimize Met oxidation (storage of reconstituted peptides in frozen saline for extended periods completely abolished biological activity) and injected (10 μl) using hand-drawn, calibrated microcapillaries at 50–0.05 pmol per crab, with saline controls. Chromatophore dispersion indices were scored at 20 min intervals for 1 h.
(§5) FIGURE 9 The effect of PDHs on pigment migration in epidermal chromatophores of the 5th walking leg dactylus of C. maenas. Left panel: erythrophores, right panel: melanophores. Peptides were injected at 0.05–5 pmol per crab for PDH-1, -2, 5–50 pmol per crab for PDH-3, e-PDH, in 10 μl volumes. Mean (n = 6 crabs) chromatophore indices (Hogben-Slome) are indicated. Asterisks indicate significant differences in chromatophore stage (p < 0.05, Wilcoxon sign-rank test) 40 min after injection of peptide, compared to 0 min.

[2] = test system: black chromatophores (melanophores) in the dactyl of the last walking leg; assay: chromatophore dispersion bioassay in vivo, black chromatophores (melanophores); parameters: species or system Carcinus maenas; conditions: injected 0.05–5 pmol per crab; n = 6 crabs; melanophores were invariably partially dispersed in all crabs
Protocol: as §4, §5

[3] = test system: red and black chromatophores in the dactyl of the last walking leg; assay: chromatophore dispersion bioassay in vivo, red and black chromatophores; parameters: species or system Carcinus maenas; conditions: n = 6 crabs; for potency in chromatophore dispersion assay (in words): injected 0.05–5 pmol per crab
Protocol: as §4, §5

anti-PDH antiserum R171 = assay: enzyme immunoassay (EIA), cross-reactivity with PDH antiserum R171; format: binding; conditions: for dose required to give an absorbance of 1.0 in the EIA: PDH antiserum R171 raised to PDH-1, 1:2000, absorbance at 405 nm
Protocol: Fixed nervous systems were processed for whole mount IHC as previously described ([Webster et al., 2013]). In some, whole eyestalks, including cuticle were taken from postmolt crabs, and routinely fixed (Bouin’s) and processed for paraffin wax embedding; thick serial sections (25–30 μm) were then prepared and processed for IHC. Primary antiserum concentrations [anti-PDH code R171, raised to a thyroglobulin conjugate of PDH-1 as described ([Dircksen et al., 1987]) and characterized ([Wilcockson et al., 2011])] was 1:2000. Secondary antiserum dilution (Alexa Fluor 488 goat anti-rabbit, Invitrogen, Thermo Fisher Scientific) was 1:750. Preparations were mounted on cavity slides using Vectashield (VectorLabs, United Kingdom), cover slipped, sealed with nail varnish, and images collected and Z-stacked at 5 μm intervals on a Zeiss 710 confocal microscope equipped with Zen Black edition software (Carl Zeiss, Jena, Germany).
To identify the neurohormonal PDH inventory, 50 sinus glands (SG) were extracted in 2 M acetic acid and separated by HPLC. Conditions: 4.6 mm × 300 mm Jupiter C18 300 Å column (Phenomenex, Macclesfield, United Kingdom) 40–80% solvent B over 30 min, 1 ml/min, detection at 210 nm, solvent A, 0.11% trifluoroacetic acid (TFA); solvent B 60% acetonitrile, 0.1% TFA. Fractions (1 ml) were dried by vacuum centrifugation and reconstituted in 0.1 M bicarbonate buffer, pH 9.3 immediately prior to immunoassay. Standard PDHs (800 pmol) were subsequently chromatographed to establish SG fractions for further MS analysis. PDH immunoreactive fractions were identified by enzyme immunoassay (EIA). Reconstituted fractions (100 μl) were coated onto high protein binding microplates (Costar 3590, Corning, VWR International, United Kingdom), overnight at 4 °C, followed by washing (3 times with 0.1 M bicarbonate buffer), blocking (0.1% BSA, 1 h RT) and incubation in 100 μl/well 1:2000 anti-PDH in containing 0.1% Tween 20 (PBST), overnight 4 °C. After washing (5 times with PBST), plates were incubated in 1:5000 goat anti-rabbit peroxidase labeled IgG (Vector laboratories, United Kingdom), for 6 h, RT. After washing (5 times with PBST), peroxidase activity was visualized (0.04% ABTS, 0.01% H2O2 (30%), 0.1 M phosphate/citrate buffer, pH 4.0). PDH-1 2500-2.5 fmol per well was used to generate standard curves for quantification. Absorbance at 405 nm was measured on a microplate reader (Mithras LB 940) with data analysis (MikroWin v5.18).

Substance | activation of PDHR 43673 (in words) (PDHR 43673) | activation of PDHR 41189 (in words) (PDHR 41189) | dose giving significant dispersion of red chromatophores (erythrophores) [1] | dispersion of red chromatophores (in words) [1] | dispersion of black chromatophores (melanophores) (in words) [2] | potency in chromatophore dispersion assay (in words) [3] | specificity of antiserum (in words) (anti-PDH antiserum R171; PDH antiserum R171) | dose required to give an absorbance of 1.0 in the EIA (anti-PDH antiserum R171) | dispersion of red chromatophores at the lowest dose (in words) ([1]; lowest dose, 50 fmol per crab) | chromatophore-dispersing activity (in words) ([3]; 5–50 pmol per crab, highest dose 50 pmol per crab) | EC50 (PDHR 43673; approximate EC50, CHO-K1-Aeq-Gα16 cells transiently expressing PDHR 43673, means of N = 4, normalized against maximum luminescence responses for PDH-1) [µM] | EC50 (PDHR 41189; approximate EC50, CHO-K1-Aeq-Gα16 cells transiently expressing PDHR 41189, means of N = 4, normalized against maximum luminescence responses for PDH-1) [µM]
NSELINSILGLPKVMNDA-NH2 [PDH-1] | activated by PDH-1 and PDH-2 at low nanomolar doses; also recorded: much more sensitive and larger luminescence responses; also recorded: activated the 43673 receptor in the low nanomolar range; also recorded: pronounced selectivity for PDH-1, -2 | high nanomolar concentrations of PDH-1, -2 were needed to result in a luminescent signal | around 0.5 pmol per crab | effective in dispersing red chromatophores (erythrophores) | also dispersed black chromatophores (melanophores), but to a lesser extent | exhibit biological activity in the chromatophore dispersion assay | rather marked specificity to PDH-1; also recorded: marked selectivity for this peptide | 150 fmol | – | – | – | –
NSELINSLLGLSRLMNEA-NH2 [PDH-2] | activated by PDH-1 and PDH-2 at low nanomolar doses; also recorded: much more sensitive and larger luminescence responses; also recorded: activated the 43673 receptor in the low nanomolar range; also recorded: pronounced selectivity for PDH-1, -2 | high nanomolar concentrations of PDH-1, -2 were needed to result in a luminescent signal | around 0.5 pmol per crab | effective in dispersing red chromatophores (erythrophores) | also dispersed black chromatophores (melanophores), but to a lesser extent | exhibit biological activity in the chromatophore dispersion assay; also recorded: very potent in the chromatophore dispersion assay | – | > 10,000 fmol | some pigment dispersion was observed at the lowest dose (50 fmol per crab) although this was transient and statistically not significant | – | – | –
NSELINTLLGSQDLGNMRNA-NH2 [e-PDH] | micromolar concentrations of PDH-3 and e-PDH were necessary to activate this receptor; also recorded: even micromolar concentrations of PDH-3 and e-PDH were needed to produce rather weak luminescence responses | activated by PDH-3 and an extended 20 residue e-PDH; also recorded: activated by PDH-3 and e-PDH at low nanomolar concentrations; also recorded: low nanomolar concentrations of PDH-3 and e-PDH activated this receptor; also recorded: preferentially activated by PDH-3 and e-PDH | – | – | – | – | – | 8000 fmol | – | entirely without chromatophore-dispersing activity, even at the highest dose used | – | –
PDH-3: synthetic C. maenas pigment dispersing hormone 3, 18 residues, C-terminal Ala-amide; MN602309 | – | – | – | – | – | – | – | – | – | – | 10 | 0.025
diuretic hormone-31 [DH-31, reference compound] | Neither receptor was activated by DH-31 | Neither receptor was activated by DH-31 | – | – | – | – | – | – | – | – | – | –

From publication PMC7658428, “Pigment Dispersing Factors and Their Cognate Receptors in a Crustacean Model, With New Insights Into Distinct Neurons and Their Functions” (Frontiers in Neuroscience, 2020)
